# Data: patent US20250109140A1, “5-[5-(PIPERIDIN-4-YL)THIENO[3,2-C]PYRAZOL-2-YL]INDAZOLE DERIVATIVES AND RELATED COMPOUNDS AS MODULATORS FOR SPLICING NUCLEIC ACIDS AND FOR THE TREATMENT OF PROLIFERATIVE DISEASES” (REMIX THERAPUTICS INC., priority 2022, published 2025)
# Where a name gives a salt, the structure may show the parent alone. Read-outs that look alike come from different tables or passages of the source.
# What was measured:
# HTT mRNA = assay: Splicing RT-qPCR assay, HTT canonical (CJ) and alternative (AJ) junction mRNA; assay type: cell-based; conditions: Homo sapiens; for EC50: AC50 = 50% response in AJ mRNA increase
# Method in brief: (§1)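 A673/K562; 11-pt 3-fold dil., top 10 uM final, ≤0.25% DMSO; 24 h, 37 °C, 5% CO2. Lysis, then RT-qPCR of CJ/AJ isoforms, ≥duplicate. ΔCt vs housekeeper (GAPDH/GUSB/PPIA), ΔΔCt vs DMSO, RQ = 2^(−ΔΔCt), expressed as % response.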
# MYB mRNA = assay: Splicing RT-qPCR assay, MYB canonical (CJ) and alternative (AJ) junction mRNA; assay type: cell-based; conditions: Homo sapiens; for EC50: AC50 = 50% response in AJ mRNA increase
# Method in brief: as §1
# SMN2 mRNA = assay: Splicing RT-qPCR gene panel, SMN2 canonical junction (CJ) mRNA; assay type: cell-based; conditions: Homo sapiens; Table 8; larger gene panel, decrease in CJ mRNA levels
# Method in brief: as §1
# Target C mRNA = assay: Splicing RT-qPCR gene panel, Target C canonical junction (CJ) mRNA; assay type: cell-based; conditions: Homo sapiens; Table 8; larger gene panel, decrease in CJ mRNA levels
# Method in brief: as §1
# HiBiT-tagged MYB protein = assay: HiBiT protein abundance assay, MYB (K562 HiBiT knock-in cells); assay type: cell-based, human; conditions: 24 hours treatment
# Protocol: (§2) Compounds described herein were used to screen for effects on quantitative protein abundance using a HiBit assay system (Promega). Quantitative protein abundance was determined by measuring the protein levels of HiBit-tagged protein targets expressed in cell culture via luminescence using the Nano-Glo HiBiT Lytic Detection System, which uses a split complementation assay format to reconstitute NanoBiT enzyme to generate a luminescent signal. A protein abundance assay was developed such that endogenous protein targets could be modified with the HiBiT peptide tag and their abundance could be assessed after compound treatment. Briefly, K562 cell lines containing a HiBiT-modification were treated with various compounds described herein (e.g., compounds of Formulas (I), or (II)). After treatment for 24 hours, the protein abundance of a specific target was determined by measuring luminescence.
# (§3) Cells were maintained in IMDM with 10% FBS. Before the assay, cells were diluted with […] growth media (IMDM+[…] media) and were seeded in a 384-well plate at a density of 10000 cells/well (for each cell line listed in Table 6). Each compound was prepared as a 10-point 3-fold serial dilution in DMSO with the top dose at a final concentration of […] in the well. Unmodified K562 cells were added at the previously specified density with DMSO to serve as an assay baseline and positive control (PC) and DMSO only with the respective modified cell lines was added to the negative control (NC) columns. Final DMSO concentration was kept at or below 0.25%. Treated cell plates were placed in an incubator at 37° C. with […] for 24 hours. After 24 hours, 25 μL of Complete HiflitLytic reagent was added to each well at room temperature (e.g. one plate requiring 10 mL Lytic Buffer, 100 μL LgBiT Protein, 200 μL Lytic Substrate), shaken for 5 minutes at 600 RPM, then left to sit for 10 minutes for signal to stabilize before reading on a Spark Cyto plate reader (Tecan) with a 500 ms measurement time.
# (§4) To determine compound effects on protein abundance of each target in Table 6, the percent response for each respective cell line was calculated at each compound concentration as follows:
# (§5) For the normalized response at each concentration, a four-parameter logistical regression was fit to the data and the response was interpolated at the 50% value to determine a concentration for protein abundance at 50% (IC50) the untreated control.
# HiBiT-tagged HTT protein = assay: HiBiT protein abundance assay, HTT (K562 HiBiT knock-in cells); assay type: cell-based, human; conditions: 24 hours treatment
# Protocol: as §2, §3, §4, §5
# [1] = system: K562 (human chronic myelogenous leukemia) cells; assay: Cell viability, Cell Titer Glo 2.0 assay, K562 cells; assay type: cell-based; conditions: 72 hours
# Protocol: Compounds described herein were screened for toxicity in K562 (human chronic myelogenous leukemia) and SH-SY5Y (human neuroblastoma) cells using a Cell Titer Glo 2.0 assay.
# Cells were plated at 500 cells/well (K562 cells) in 45 μL of IMDM supplemented with 10% FBS in a 384-well opaque plate. Wells containing only medium were used as a blank control. Test compounds (e.g., compounds of Formula (I), (III), (IV), (V), or (VI)) were first serially diluted in DMSO then diluted 1:100 with IMDM+10% FBS. The final concentration of DMSO was 0.1% in each well. The cells were incubated for 72 hours at 37° C. and 5% CO2 before assaying with Cell Titer Glo 2.0 reagent.
# Target C = assay: HiBiT protein abundance assay, Target C (K562 HiBiT knock-in cells); assay type: cell-based, human; conditions: 24 hours treatment
# Protocol: • Promega Nano-Glo HiBiT Lytic Detection System (cat #N3030) • Corning 384-well TC-treated microplates (cat #3570) • Synthego Engineered Cells Knock-In Clones
# as §3, §4, §5
# [2] = Table 7, RT-qPCR, A673 or K562 cells, 24 hours treatment
# [3] = Table 7, IC50 = 50% response in CJ mRNA decrease, RT-qPCR, A673 or K562 cells, 24 hours treatment, read-out: HTT CJ
# [4] = Table 8, larger gene panel, decrease in CJ mRNA levels, read-out: HTT CJ IC50
# [5] = Table 7, IC50 = 50% response in CJ mRNA decrease, RT-qPCR, A673 or K562 cells, 24 hours treatment, read-out: MYB CJ
# [6] = Table 8, larger gene panel, decrease in CJ mRNA levels, read-out: MYB CJ IC50
SMILES,EC50 (HTT mRNA; [2]) [nM],IC50 (HTT mRNA; [3]) [nM],IC50 (HTT mRNA; [4]) [nM],EC50 (MYB mRNA; [2]) [nM],IC50 (MYB mRNA; [5]) [nM],IC50 (MYB mRNA; [6]) [nM],IC50 (SMN2 mRNA) [nM],IC50 (Target C mRNA) [nM],IC50 (HiBiT-tagged MYB protein) [nM],IC50 (HiBiT-tagged HTT protein) [nM],IC50 [1] [nM],IC50 (Target C) [nM]
"Cc1cn2nc(-n3cc4cc(C5CCNCC5)sc4n3)cc(C)c2n1 [Compound 110, 4-(2-[2,8-dimethylimidazo[1,2-b]pyridazin-6-yl]thieno[2,3-c]pyrazol-5-yl) piperidine]",100 to 1000,100 to 1000,100 to 1000,100 to 1000,1000 to 10000,100 to 1000,< 100,,1000 to 10000,1000 to 10000,1000 to 10000,1000 to 10000
"Cn1cc2cc(-c3cc4nn(C5CCNCC5)cc4s3)cc(F)c2n1 [Compound 121, 7-fluoro-2-methyl-5-[2-(piperidin-4-yl)thieno[3,2-c]pyrazol-5-yl]indazole]",100 to 1000,< 100,100 to 1000,100 to 1000,100 to 1000,100 to 1000,< 100,< 100,100 to 1000,< 100,,< 100
"Cn1cc2cc(-c3cc4sc(C5CCNCC5)nc4s3)cc(F)c2n1 [Compound 124, 7-fluoro-2-methyl-5-[2-(piperidin-4-yl)thieno[2,3-d][1,3]thiazol-5-yl]indazole]",< 100,100 to 1000,< 100,100 to 1000,100 to 1000,100 to 1000,< 100,100 to 1000,,,,
"Cc1cn2cc(-c3nc4sc(C5CCNCC5)cc4s3)cc(C)c2n1 [Compound 140, 4-(2-[2,8-dimethylimidazo[1,2-a]pyridin-6-yl]thieno[2,3-d][1,3]thiazol-5-yl)piperidine hydrochloride]",< 100,< 100,< 100,100 to 1000,100 to 1000,100 to 1000,< 100,100 to 1000,,,,
"Cc1cn2nc(-c3cc4sc(C5CCNCC5)nc4s3)cc(C)c2n1 [Compound 125, 4-(5-[2,8-dimethylimidazo[1,2-b]pyridazin-6-yl]thieno [2,3-d][1,3]thiazol-2-yl) piperidine]",100 to 1000,100 to 1000,100 to 1000,100 to 1000,1000 to 10000,100 to 1000,100 to 1000,1000 to 10000,,,,
Cc1nc2c(F)cc(-c3nc4sc(C5CCNCC5)cc4s3)cc2s1 [Compound 126],100 to 1000,100 to 1000,100 to 1000,1000 to 10000,1000 to 10000,1000 to 10000,100 to 1000,1000 to 10000,,,,
"Cn1cc2cc(-c3nc4sc(N5CCN6CCCC6C5)cc4s3)cc(F)c2n1 (stereo not shown) [Compound 144, 7-fluoro-5-(5-[hexahydro-1H-pyrrolo[1,2-a]pyrazin-2-yl]thieno[2,3-d][1,3]thiazol-2-yl)-2-methylindazole]",100 to 1000,1000 to 10000,100 to 1000,100 to 1000,1000 to 10000,100 to 1000,< 100,> 10000,,,,
"Cc1cn2nc(-c3nc4sc(C5CCNCC5)cc4s3)cc2c(C)n1 [Compound 133, 4-(2-[4,6-dimethylpyrazolo[1,5-a]pyrazin-2-yl]thieno[2,3-d][1,3]thiazol-5-yl)piperidine]",100 to 1000,100 to 1000,100 to 1000,100 to 1000,100 to 1000,100 to 1000,100 to 1000,100 to 1000,,,,
"Cn1cc2cc(-c3nc4sc(C5CCNCC5)cc4s3)cc(F)c2n1 [Compound 106, 7-fluoro-2-methyl-5-[5-(piperidin-4-yl)thieno[2,3-d][1,3]thiazol-2-yl]indazole]",< 100,< 100,< 100,< 100,< 100,< 100,< 100,< 100,,,,

# Next, values leading:
EC50 (HTT mRNA; [2]) [nM],IC50 (HTT mRNA; [3]) [nM],IC50 (HTT mRNA; [4]) [nM],EC50 (MYB mRNA; [2]) [nM],IC50 (MYB mRNA; [5]) [nM],IC50 (MYB mRNA; [6]) [nM],IC50 (SMN2 mRNA) [nM],IC50 (Target C mRNA) [nM],IC50 (HiBiT-tagged MYB protein) [nM],IC50 (HiBiT-tagged HTT protein) [nM],IC50 [1] [nM],IC50 (Target C) [nM],SMILES
> 10000,> 10000,> 10000,> 10000,> 10000,> 10000,1000 to 10000,> 10000,1000 to 10000,1000 to 10000,> 10000,> 10000,"Cc1cn2cc(-c3nc4cn(C5CCNCC5)nc4s3)nc(C)c2n1 [Compound 1105, 4-(5-{2,8-dimethylimidazo[1,2-a]pyrazin-6-yl}pyrazolo[4,3-d][1,3]thiazol-2-yl)piperidine]"
1000 to 10000,1000 to 10000,1000 to 10000,> 10000,> 10000,> 10000,1000 to 10000,> 10000,,,1000 to 10000,,Cc1cn2cc(-n3cc4sc(C5CCNCC5)cc4n3)cc(C)c2n1 [Compound 173]
1000 to 10000,1000 to 10000,1000 to 10000,1000 to 10000,1000 to 10000,1000 to 10000,100 to 1000,1000 to 10000,,,,,Cn1cc2cc(N3Cc4sc(C5CCNCC5)cc4C3=O)ncc2n1 [Compound 1125]
> 10000,> 10000,> 10000,> 10000,> 10000,> 10000,1000 to 10000,> 10000,,,,,"CN1CCCC2(CCN2c2cc3sc(-c4cc(F)c5nn(C)cc5c4)nc3s2)C1 (stereo not shown) [Compound 203, 1-[2-(7-fluoro-2-methylindazol-5-yl)thieno[2,3-d][1,3]thiazol-5-yl]-6-methyl-1,6-diazaspiro[3.5]nonane]"
100 to 1000,100 to 1000,100 to 1000,100 to 1000,100 to 1000,100 to 1000,< 100,100 to 1000,,,,,"CN(C)C1CCN(c2cc3sc(-c4cc(F)c5nn(C)cc5c4)nc3s2)CC1 [Compound 154, 1-[2-(7-fluoro-2-methylindazol-5-yl)thieno[2,3-d][1,3]thiazol-5-yl]-N,N-dimethylpiperidin-4-amine]"
> 10000,> 10000,> 10000,> 10000,> 10000,> 10000,1000 to 10000,1000 to 10000,,,,,"Cn1cc2cc(-c3nc4sc(N5CCC56CCCNC6)cc4s3)cc(F)c2n1 (stereo not shown) [Compound 202, 1-[2-(7-fluoro-2-methylindazol-5-yl)thieno[2,3-d][1,3]thiazol-5-yl]-1,6-diazaspiro[3.5]nonane]"
100 to 1000,100 to 1000,100 to 1000,1000 to 10000,100 to 1000,100 to 1000,< 100,100 to 1000,,,,,"Cc1cc(-c2cc3cn([C@@H]4CCNC[C@@H]4F)nc3s2)cc2cn(C)nc12 (single isomer, unassigned) [Compound 244]"
